Data reported in patent publication US12703729B2, “GIP agonist compounds and methods” (Zealand Pharma A/S, priority 2014, dated 2026).
Starred links: 1 amine or outer side, 2 acyl side, 3 side chain; linkers in the order of their positions; H or OH if unused. Non-standard residues stand in square brackets, D forms with d. Residues, ends and D or L forms follow the SMILES beside them. Groups on a side chain read outwards from the residue. *: point of attachment. C20 diacid = O=C(O)CCCCCCCCCCCCCCCCCCC(=O)*; γGlu = O=C(O)[C@H](CCC(=O)[*:2])N[*:1]; AEEA = NCCOCCOCC(=O)O; Aib = CC(C)(N)C(=O)O

Tests used:
[1] = target: T1, human GIP receptor (GIP R) (Homo sapiens, UniProt P48546); assay: Activity assay at human GIP receptor, cAMP induction (AlphaScreen), Example 3
T1 sequence (P48546 22-466): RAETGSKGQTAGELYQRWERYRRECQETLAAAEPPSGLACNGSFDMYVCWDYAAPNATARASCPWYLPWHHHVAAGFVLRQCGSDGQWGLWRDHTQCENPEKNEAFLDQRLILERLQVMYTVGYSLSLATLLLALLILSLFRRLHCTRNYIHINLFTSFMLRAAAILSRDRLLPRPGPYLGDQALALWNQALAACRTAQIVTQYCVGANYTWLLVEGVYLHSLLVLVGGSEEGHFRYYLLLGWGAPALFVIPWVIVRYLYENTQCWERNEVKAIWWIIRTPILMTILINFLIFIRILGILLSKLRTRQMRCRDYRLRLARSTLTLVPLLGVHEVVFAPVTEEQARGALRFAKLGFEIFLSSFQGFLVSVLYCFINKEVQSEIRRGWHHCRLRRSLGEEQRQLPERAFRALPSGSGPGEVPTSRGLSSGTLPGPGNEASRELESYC

human GIP R = target: T2, human GIP R (Homo sapiens, UniProt P48546); assay: cell-based
T2 sequence (P48546 22-466): T1 sequence (P48546 22-466)

[2] = target: human GLP-1 receptor (GLP-1R) (Homo sapiens, UniProt P43220); assay: Activity assay at human GLP-1 receptor, cAMP induction (AlphaScreen), Example 3
human GLP-1 receptor (GLP-1R), sequence (P43220 24-463): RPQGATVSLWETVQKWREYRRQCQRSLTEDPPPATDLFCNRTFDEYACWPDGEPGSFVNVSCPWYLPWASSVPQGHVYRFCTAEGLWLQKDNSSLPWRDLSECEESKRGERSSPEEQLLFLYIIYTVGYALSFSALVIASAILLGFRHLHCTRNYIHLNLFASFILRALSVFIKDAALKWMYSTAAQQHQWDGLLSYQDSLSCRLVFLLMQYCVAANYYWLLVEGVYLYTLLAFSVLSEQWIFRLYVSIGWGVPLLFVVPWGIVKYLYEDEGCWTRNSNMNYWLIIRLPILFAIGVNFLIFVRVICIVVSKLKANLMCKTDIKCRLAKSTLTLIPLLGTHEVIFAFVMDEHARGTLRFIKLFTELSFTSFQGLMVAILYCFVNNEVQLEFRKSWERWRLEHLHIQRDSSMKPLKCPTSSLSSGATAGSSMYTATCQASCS

Compound	EC50 [1] [nM]	EC50 (human GIP R) [nM]	EC50 [2] [nM]
CC[C@H](C)[C@H](NC(=O)[C@H](CCCCN)NC(=O)[C@H](CC(=O)O)NC(=O)[C@H](CC(C)C)NC(=O)[C@H](CCC(=O)O)NC(=O)[C@@H](NC(=O)[C@H](CO)NC(=O)[C@H](Cc1ccc(O)cc1)NC(=O)[C@H](CC(=O)O)NC(=O)[C@H](CO)NC(=O)[C@@H](NC(=O)[C@H](Cc1ccccc1)NC(=O)[C@@H](NC(=O)CNC(=O)[C@H](CCC(=O)O)NC(=O)C(C)(C)NC(=O)[C@@H](N)Cc1ccc(O)cc1)[C@@H](C)O)[C@@H](C)CC)[C@@H](C)CC)C(=O)N[C@@H](C)C(=O)N[C@@H](CCC(N)=O)C(=O)N[C@@H](CCCNC(=N)N)C(=O)N[C@@H](C)C(=O)N[C@@H](Cc1ccccc1)C(=O)N[C@H](C(=O)N[C@@H](CCC(=O)O)C(=O)N[C@@H](Cc1c[nH]c2ccccc12)C(=O)N[C@@H](CC(C)C)C(=O)N[C@@H](CC(C)C)C(=O)N[C@@H](C)C(=O)N[C@@H](CCC(N)=O)C(=O)NCC(=O)N1CCC[C@H]1C(=O)N[C@@H](CO)C(=O)N[C@@H](CO)C(=O)NCC(=O)N[C@@H](C)C(=O)N1CCC[C@H]1C(=O)N1CCC[C@H]1C(=O)N1CCC[C@H]1C(=O)N[C@@H](CO)C(=O)N[C@@H](CCCCNC(=O)COCCOCCNC(=O)COCCOCCNC(=O)CC[C@H](NC(=O)CCCCCCCCCCCCCCCCCCC(=O)O)C(=O)O)C(N)=O)[C@@H](C)CC [Compound 28] (H-Y[Aib]EGTFISDYSIELDKIAQRAFIEWLLAQGPSSGAPPPSK([AEEA-AEEA-γGlu-C20 diacid])-NH2)	0.013	0.007	> 3
CC[C@H](C)[C@H](NC(=O)[C@H](CO)NC(=O)[C@H](Cc1ccc(O)cc1)NC(=O)[C@H](CC(=O)O)NC(=O)[C@H](CO)NC(=O)[C@@H](NC(=O)[C@H](Cc1ccccc1)NC(=O)[C@@H](NC(=O)CNC(=O)[C@H](CCC(=O)O)NC(=O)C(C)(C)NC(=O)[C@@H](N)Cc1ccc(O)cc1)[C@@H](C)O)[C@@H](C)CC)C(=O)N[C@@H](CCC(=O)O)C(=O)N[C@@H](CC(C)C)C(=O)N[C@@H](CC(=O)O)C(=O)N[C@@H](CCCCN)C(=O)N[C@@H](CCCCNC(=O)COCCOCCNC(=O)COCCOCCNC(=O)CC[C@H](NC(=O)CCCCCCCCCCCCCCCCCCC(=O)O)C(=O)O)C(=O)N[C@@H](C)C(=O)N[C@@H](C)C(=O)N[C@@H](CCC(N)=O)C(=O)N[C@@H](C)C(=O)N[C@@H](Cc1ccccc1)C(=O)N[C@H](C(=O)N[C@@H](CC(N)=O)C(=O)N[C@@H](Cc1c[nH]c2ccccc12)C(=O)N[C@@H](CC(C)C)C(=O)N[C@@H](CC(C)C)C(=O)N[C@@H](C)C(=O)NCC(=O)N1CCC[C@H]1C(=O)N[C@@H](CO)C(=O)N[C@@H](CO)C(=O)NCC(=O)N[C@@H](C)C(=O)N1CCC[C@H]1C(=O)N1CCC[C@H]1C(=O)N1CCC[C@H]1C(=O)N[C@@H](CO)C(N)=O)C(C)C [Compound 29] (H-Y[Aib]EGTFISDYSIELDKK([AEEA-AEEA-γGlu-C20 diacid])AAQAFVNWLLAGPSSGAPPPS-NH2)	0.007	0.014	> 100
